# Paper PMC8564487, “MHC-Optimized Peptide Scaffold for Improved Antigen Presentation and Anti-Tumor Response” (Frontiers in Immunology, 2021)
# Tests used:
# Assay type in all cases: in vivo, C57BL/6 mice
# splenocytes = assay: IFN-γ EliSpot cross-reactivity between wt and htcPep after immunization; settings: mice immunized with NAL peptide, splenocytes re-stimulated with the labelled peptide
# Description: C57BL/6 mice were immunized with the different htcPep. In particular, each group of animals (6 for each group) were injected by sub-cutaneous (s.c.) route with 100 µg of WT, INC (mix of selected htcPep), NAL or MIX peptides (peptide library) respectively, emulsified with 50 μg of Polyinosinic:polycytidylic acid [poly(I:C); InvivoGen] adjuvant formulated in PBS (200ul total volume). Each group received weekly the peptide vaccine in combination with metronomic chemotherapy (MCT) and ICI. One group was treated only with MCT and ICI (MCT + ICI group). Control mice were treated with endotoxin-free phosphate-buffered saline (PBS). Splenocytes were re-stimulated ex-vivo O/N with the different peptides in an IFN-γ EliSpot assay.
# ELISPOT was performed according to BD Biosciences manufacturer instructions (BD ELISPOT Mouse IFN-γ ELISPOT Set cod. 551083). 5x10^5 splenocytes or 2 x10^5 tumor infiltrated lymphocytes (TIL) were counted and plated in each well. […]
# Both splenocytes and TILs were stimulated with 10ug/ml of single or peptide pool used for the immunization and incubated for 24-26h. […] The plates were read with an AID EliSpot Reader Systems (AID GmbH, Strassberg, Germany). The results were calculated as spot forming counts as a mean of a duplicate count from the specific antigen stimulation minus the negative control.
# B16F10 tumors [1] = assay: IHC of tumor-infiltrating lymphocytes in B16F10 tumors; settings: B16F10 tumors at sacrifice, Trp2 groups, Central Tumor
# From the text: Formalin-Fixed Paraffin-Embedded (FFPE) sections were stained with CD3+, FoxP3 and Granzime B antibodies manually. Visualization of the antibody–antigen reaction was visualized by anti-alkaline phosphatase methods using Vulcan fast red (Biocare Medical FR805S) as the chromogenic substrate. Finally, sections were weakly counterstained with hematoxylin and mounted.
# Lymphocyte densities (cells/mm2) were quantified in the tumor (CT) and invasive margin (IM) by digital pathology. The slides were scanned with Aperio AT2 (Leica) and the areas (CT, IM) were selected by an experienced pathologist (MDB). Finally, the acquired images were quantified using QuPath 0.2.3.
# To evaluate the balance between cytotoxic and immune suppressive activity of B16 tumor model a formula considering the numerical difference between the GrzB+ cells (cytotoxic cells) and the FOXP3+ cells (immunosuppressive cells), on total CD3+ cells, was applied. The formula is schematized as:
# Ratio=(# of GRZB−# of FOXP3)/# of CD3.
# B16F10 tumors [2] = assay: Tumor necrosis rate (H&E) in B16F10 tumors; settings: H&E staining
# Description: Finally, tumor necrosis rates were evaluated for each tumor lesion. The slides were stained with hematoxylin and eosin and then subjected to reading and determination of areas of necrosis. For percentage of necrosis through the tumor mass, was used the following formula: …
# %necrosis area: (necrosis area/total tumoral mass area)∗100
substance,measurement,setting,value
"D4W: heteroclitic Trp2 peptide with Tryptophan substitution at position 4 (SVYWFFVWL; UniProt P29812 180-188, looked up, variant D183W)",T cell cross-reactivity of NAL-immunized animals with challenging htcPep,splenocytes; Trp2 series,strongest T cells cross-reactivity
"Trp2 wt: wild type Trp2 H-2Db epitope expressed by B16F10 melanoma cells (SVYDFFVWL; Trp2 H-2Db epitope; UniProt P29812 180-188, looked up, fragment)","Average number of FOXP3+ T cells, CT area",B16F10 tumors [1],2.8
same,% of necrosis (necrosis area/total tumoral mass area),B16F10 tumors [2],10%
"Y4W: heteroclitic E7 peptide with Tryptophan substitution at position 4 (RAHWNIVTF; UniProt P03129 49-57, looked up, variant Y52W)",T cell cross-reactivity of NAL-immunized animals with challenging htcPep,splenocytes; HPV-E7 series,strongest T cells cross-reactivity
